# Patent US20100068204A1, “4-ARYLOXYQUINOLIN-2(1H)-ONES AS MTOR KINASE AND PI3 KINASE INHIBITORS, FOR USE AS ANTI-CANCER AGENTS” (Wyeth, priority 2008, published 2010)
# How the values were obtained:
# human TOR (FLAG-TOR) = human TOR (FLAG-TOR) (Homo sapiens, UniProt P42345); assay: mTOR enzyme assay (DELFIA format, purified enzyme); format: biochemical; settings: 800 ng/ml FLAG-TOR, 100 μM ATP, 1.25 μM His6-S6K; read-out: mTOR Kinase IC50
# [1] = test system: MDA468 breast tumor cells; assay: In vitro cell growth assay (MTS), MDA468; format: cell-based, human; settings: Homo sapiens, 72 h, three days after drug treatment
# Method: (§1) Cell lines used were human adenocarcinoma (LoVo), […], prostate (LNCap), breast (MDA468, MCF7), colon (HCT116), renal (HTB44 A498), and ovarian (OVCAR3) tumor cell lines. The tumor cells were plated in 96-well culture plates at approximately 3000 cells per well. One day following plating, various concentrations of inhibitors in DMSO were added to cells (final DMSO concentration in cell assays was 0.25%). Three days after drug treatment, viable cell densities were determined by cell mediated metabolic conversion of the dye MTS, a well-established indicator of cell proliferation in vitro. Cell growth assays were performed using kits purchased from Promega Corporation (Madison, Wis.), following the protocol provided by the vendor. Measuring absorbance at 490 nm generated MTS assay results. Compound effect on cell proliferation was assessed relative to untreated control cell growth.
# [2] = test system: LNCap prostate tumor cells; assay: In vitro cell growth assay (MTS), LNCap; format: cell-based, human; settings: Homo sapiens, LNCaP, 72 h, three days after drug treatment
# Method: as §1
# PI3Kα = PI3Kα (Homo sapiens, UniProt P42336); assay: PI3Kα fluorescence polarization assay; format: biochemical; settings: 20 μM PIP2, 25 μM ATP
# Method: The reaction buffer was 20 mM HEPES pH7.5, 2 mM MgCl2, 0.05% CHAPS, and 0.01% βME (added fresh). The substrate solution was 40 μM PIP2 (diC8, Echelon, Salt Lake City Utah cat #P-4508, 1 mM in water) and 50 μM ATP in the reaction buffer. Nunc 384-well black polypropylene fluorescent plates were used for PI3K assays. The assay is run by putting 9.5 μl of freshly diluted enzyme in the reaction buffer per well, adding 0.5 μl of diluted drug or DMSO, and mixing. Then 10 μl of the substrate solution is added to each well to start the reaction. A final concentration of 20 μM PIP2 and 25 μM ATP in the reaction was used. Reactions were allowed to proceed for 30-60 minutes at room temperature. After 30-60 minutes, 20 μl of a solution of 10 nM TAMRA detector (Red detector probe-Echelon) and 2.5 uM of GST-murine GRP (1.5 mg/ml in 17% glycerol) was added per well to stop the reaction. The resulting solution was mixed well and allowed to stand for 90-110 minutes before reading plate. Assay Plates were read on Perkin-Elmer Envision plate readers with appropriate filters for Tamra [BODIPY-TMRI(1,3,4,5)P4]. Data obtained were used to calculate enzymatic activity and enzyme inhibition by inhibitor compounds. It is important to keep Red probe solutions dark. This procedure is adapted from Echelon Biosciences Inc procedure for their PI3-Kinase fluorescence polarization activity Assay kit Product number K-1100.
# PI3Kα, sequence (P42336 whole entry, species assumed): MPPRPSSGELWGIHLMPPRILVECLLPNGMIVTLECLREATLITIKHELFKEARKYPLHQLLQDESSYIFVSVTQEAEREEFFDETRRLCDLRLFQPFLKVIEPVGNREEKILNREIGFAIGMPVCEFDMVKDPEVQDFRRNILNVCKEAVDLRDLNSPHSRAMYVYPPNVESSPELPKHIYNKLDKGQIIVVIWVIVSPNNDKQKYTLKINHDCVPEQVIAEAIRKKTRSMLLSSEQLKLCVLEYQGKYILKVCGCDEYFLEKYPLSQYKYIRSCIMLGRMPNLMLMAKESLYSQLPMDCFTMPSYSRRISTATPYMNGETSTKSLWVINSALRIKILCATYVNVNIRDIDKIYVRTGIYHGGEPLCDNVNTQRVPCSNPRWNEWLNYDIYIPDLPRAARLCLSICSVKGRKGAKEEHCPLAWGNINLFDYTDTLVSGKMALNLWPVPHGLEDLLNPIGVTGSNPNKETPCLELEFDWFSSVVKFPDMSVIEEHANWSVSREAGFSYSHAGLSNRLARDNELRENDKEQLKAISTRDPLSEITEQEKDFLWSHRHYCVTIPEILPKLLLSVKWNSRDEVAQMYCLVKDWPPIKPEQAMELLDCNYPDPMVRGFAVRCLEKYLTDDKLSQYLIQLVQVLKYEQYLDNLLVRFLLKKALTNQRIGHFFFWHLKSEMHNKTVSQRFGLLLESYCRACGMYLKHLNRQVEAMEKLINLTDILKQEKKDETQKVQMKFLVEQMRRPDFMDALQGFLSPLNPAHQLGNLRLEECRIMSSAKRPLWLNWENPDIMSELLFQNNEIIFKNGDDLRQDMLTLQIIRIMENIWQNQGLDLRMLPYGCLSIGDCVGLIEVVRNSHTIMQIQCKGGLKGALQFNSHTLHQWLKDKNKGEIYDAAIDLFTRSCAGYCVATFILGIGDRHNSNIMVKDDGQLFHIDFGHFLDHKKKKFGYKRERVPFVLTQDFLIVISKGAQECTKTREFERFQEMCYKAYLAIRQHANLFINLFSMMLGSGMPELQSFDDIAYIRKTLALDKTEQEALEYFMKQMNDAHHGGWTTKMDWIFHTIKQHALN
# PI3Kα, sequence (P27986 whole entry partner, species assumed): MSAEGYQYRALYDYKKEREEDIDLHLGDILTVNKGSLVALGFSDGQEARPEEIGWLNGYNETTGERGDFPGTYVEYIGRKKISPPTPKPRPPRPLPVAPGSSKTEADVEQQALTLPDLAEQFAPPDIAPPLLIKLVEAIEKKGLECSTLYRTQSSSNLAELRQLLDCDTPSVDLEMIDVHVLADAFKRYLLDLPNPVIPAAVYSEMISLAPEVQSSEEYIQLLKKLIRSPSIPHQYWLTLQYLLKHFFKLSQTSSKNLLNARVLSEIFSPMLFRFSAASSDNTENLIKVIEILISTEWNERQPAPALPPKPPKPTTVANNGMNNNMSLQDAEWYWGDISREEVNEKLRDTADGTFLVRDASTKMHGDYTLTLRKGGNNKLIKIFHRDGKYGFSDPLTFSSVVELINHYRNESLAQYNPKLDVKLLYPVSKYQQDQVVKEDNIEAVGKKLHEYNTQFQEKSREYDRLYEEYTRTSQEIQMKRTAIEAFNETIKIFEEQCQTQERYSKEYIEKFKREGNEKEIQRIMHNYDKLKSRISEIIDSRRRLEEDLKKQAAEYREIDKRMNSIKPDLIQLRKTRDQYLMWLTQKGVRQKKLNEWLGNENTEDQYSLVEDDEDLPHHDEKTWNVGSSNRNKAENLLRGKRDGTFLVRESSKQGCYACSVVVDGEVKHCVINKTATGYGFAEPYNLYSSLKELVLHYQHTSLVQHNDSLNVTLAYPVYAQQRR
IC50 (human TOR (FLAG-TOR)),IC50 [1],IC50 [2],IC50 (PI3Kα),Compound
0.23 µM,3 µM,3 µM,4.62 µM,Cn1cc(CN(Cc2ccn(C)n2)c2cccc(Oc3cc(=O)[nH]c4ccccc34)c2)cn1
0.17 µM,8.8 µM,4 µM,4.79 µM,Cn1cc(CNc2cccc(Oc3cc(=O)[nH]c4ccccc34)c2)cn1
3.7 µM,18 µM,> 60 µM,> 10 µM,CC(C)(C)OC(=O)N1CCN(c2ccc(-c3cccc(Oc4cc(=O)[nH]c5ccccc45)c3)cn2)CC1
0.65 µM,32 µM,13 µM,9.5 µM,CC(C)(C)OC(=O)N1CC=C(c2cccc(Oc3cc(=O)[nH]c4ccccc34)c2)CC1
1.3 µM,> 60 µM,> 60 µM,7 µM,O=c1cc(Oc2cccc(-c3ccc(NCc4cccnc4)cc3)c2)c2ccccc2[nH]1
0.7 µM,> 60 µM,> 60 µM,5.25 µM,O=c1cc(Oc2cccc(-c3ccc(NCc4ccncc4)cc3)c2)c2ccccc2[nH]1
0.05 µM,5 µM,2.8 µM,8 µM,CN1CCC(Nc2ccc(-c3cccc(Oc4cc(=O)[nH]c5ccccc45)c3)cc2)CC1
2.25 µM,> 60 µM,> 60 µM,> 10 µM,O=c1cc(Oc2cccc([N+](=O)[O-])c2)c2ccccc2[nH]1
1.5 µM,> 60 µM,> 60 µM,> 10 µM,O=c1cc(Oc2ccc3c(c2)OCO3)c2ccccc2[nH]1
0.43 µM,60 µM,9 µM,> 10 µM,O=c1cc(Oc2cccc(N3CCOCC3)c2)c2ccccc2[nH]1
0.15 µM,12 µM,5.8 µM,3.49 µM,O=c1cc(Oc2cccc(NCc3ccccn3)c2)c2ccccc2[nH]1
0.15 µM,10 µM,5 µM,> 10 µM,O=c1cc(Oc2cccc(NCc3ccncc3)c2)c2ccccc2[nH]1
0.32 µM,12 µM,6 µM,> 10 µM,CN1CCC(Nc2cccc(Oc3cc(=O)[nH]c4ccccc34)c2)CC1
0.4 µM,0.7 µM,> 60 µM,> 10 µM,O=c1cc(Oc2cccc(-c3ccco3)c2)c2ccccc2[nH]1
0.15 µM,7 µM,4.8 µM,> 10 µM,O=c1cc(Oc2cccc(-c3ccc(N4CCNCC4)nc3)c2)c2ccccc2[nH]1
0.47 µM,23 µM,12 µM,> 10 µM,O=c1cc(Oc2cccc(-c3ccc4[nH]ccc4c3)c2)c2ccccc2[nH]1
0.26 µM,60 µM,> 60 µM,> 10 µM,NS(=O)(=O)c1ccc(-c2cccc(Oc3cc(=O)[nH]c4ccccc34)c2)cc1
0.27 µM,26 µM,5.8 µM,> 10 µM,CS(=O)(=O)Nc1ccc(-c2cccc(Oc3cc(=O)[nH]c4ccccc34)c2)cc1
0.51 µM,28 µM,8 µM,> 10 µM,O=c1cc(Oc2cccc(-c3cccc(NCc4cccnc4)c3)c2)c2ccccc2[nH]1
0.14 µM,23 µM,12 µM,> 10 µM,CN1CCN(CCNc2ccc(-c3cccc(Oc4cc(=O)[nH]c5ccccc45)c3)cc2)CC1
0.18 µM,4.5 µM,3.05 µM,> 10 µM,O=c1cc(Oc2cccc(-c3ccc(NCCN4CCCC4)cc3)c2)c2ccccc2[nH]1
0.18 µM,8 µM,4.8 µM,5 µM,CN(C)CCNc1ccc(-c2cccc(Oc3cc(=O)[nH]c4ccccc34)c2)cc1
> 20 µM,3.8 µM,> 60 µM,2.69 µM,O=c1cc(Oc2cccc(-c3cccs3)c2)c2ccccc2[nH]1

IC50 (human TOR (FLAG-TOR)),IC50 [1],IC50 [2],IC50 (PI3Kα),Compound
0.58 µM,18 µM,6.5 µM,3.55 µM,CS(=O)(=O)Nc1cccc(-c2cccc(Oc3cc(=O)[nH]c4ccccc34)c2)c1
0.55 µM,8.5 µM,9 µM,15 µM,O=c1cc(Oc2cccc(-c3ccnc(N4CCNCC4)c3)c2)c2ccccc2[nH]1
0.4 µM,60 µM,8.5 µM,6.74 µM,COc1ncccc1CNc1cccc(Oc2cc(=O)[nH]c3ccccc23)c1
0.51 µM,15 µM,9 µM,1.93 µM,COc1cnc(OC)c(CNc2cccc(Oc3cc(=O)[nH]c4ccccc34)c2)c1
0.31 µM,12 µM,4.1 µM,4.07 µM,COc1ccc(CNc2cccc(Oc3cc(=O)[nH]c4ccccc34)c2)cn1
0.14 µM,8 µM,4 µM,12 µM,CN(C)C/C=C/C(=O)Nc1cccc(-c2cccc(Oc3cc(=O)[nH]c4ccccc34)c2)c1
0.33 µM,24 µM,9 µM,5.62 µM,O=c1cc(Oc2cccc(NCc3ccccc3N3CCOCC3)c2)c2ccccc2[nH]1
0.19 µM,11 µM,3.3 µM,3.58 µM,CC(Nc1cccc(Oc2cc(=O)[nH]c3ccccc23)c1)c1cccnc1 (centres unmarked)
0.14 µM,11 µM,3.1 µM,7.52 µM,CC(Nc1cccc(Oc2cc(=O)[nH]c3ccccc23)c1)c1ccncc1 (centres unmarked)
0.12 µM,11.5 µM,4 µM,> 10 µM,O=c1cc(Oc2cccc(NCCc3cccnc3)c2)c2ccccc2[nH]1
0.15 µM,31 µM,6.4 µM,> 10 µM,O=c1cc(Oc2cccc(NC3CCN(Cc4ccncc4)CC3)c2)c2ccccc2[nH]1
0.19 µM,19 µM,6.5 µM,> 10 µM,O=c1cc(Oc2cccc(NC3CCN(Cc4ccccn4)CC3)c2)c2ccccc2[nH]1
0.12 µM,13 µM,6.7 µM,> 10 µM,O=c1cc(Oc2cccc(-c3ccc(NC4CCN(Cc5ccncc5)CC4)cc3)c2)c2ccccc2[nH]1
0.11 µM,11 µM,5.2 µM,> 10 µM,O=c1cc(Oc2cccc(-c3ccc(NC4CCN(Cc5ccccn5)CC4)cc3)c2)c2ccccc2[nH]1
0.31 µM,10 µM,3.9 µM,8 µM,CCN1CCCC(Nc2ccc(-c3cccc(Oc4cc(=O)[nH]c5ccccc45)c3)cc2)C1 (centres unmarked)
0.09 µM,3.8 µM,2.3 µM,> 10 µM,O=c1cc(Oc2cccc(-c3ccc(NC4CCNCC4)cc3)c2)c2ccccc2[nH]1
> 20 µM,> 60 µM,> 60 µM,> 10 µM,O=c1cc(Oc2cccc(-c3ccc(Cl)nc3)c2)c2ccccc2[nH]1
0.06 µM,60 µM,> 60 µM,> 10 µM,O=c1cc(Oc2cccc(NCc3cnc4ccccc4c3)c2)c2ccccc2[nH]1
4.5 µM,60 µM,11.5 µM,11.8 µM,CC(C)(C)OC(=O)n1ccc2cc(CNc3cccc(Oc4cc(=O)[nH]c5ccccc45)c3)cnc21
0.12 µM,13 µM,4.9 µM,3.42 µM,O=c1cc(Oc2cccc(NCc3cnc4[nH]ccc4c3)c2)c2ccccc2[nH]1
0.31 µM,12 µM,5 µM,> 10 µM,CN(C)c1ncccc1CNc1cccc(Oc2cc(=O)[nH]c3ccccc23)c1
0.16 µM,> 60 µM,> 60 µM,4.55 µM,CN(C)c1ccc(CNc2cccc(Oc3cc(=O)[nH]c4ccccc34)c2)cn1
0.11 µM,8 µM,4 µM,7.16 µM,Nc1ccc(CNc2cccc(Oc3cc(=O)[nH]c4ccccc34)c2)cn1

Compound,IC50 (human TOR (FLAG-TOR)),IC50 [1],IC50 [2],IC50 (PI3Kα)
O=c1cc(Oc2cccc(-c3ccc(NCCCl)cc3)c2)c2ccccc2[nH]1,0.44 µM,11 µM,6.2 µM,> 10 µM
